Measurements taken from patent publication US20170122958A1, “Enzymes Functional Probes” (University of Dundee, priority 2013, published 2017).

How the values were obtained:
Test in all cases: DSF thermal shift
Format in all cases: binding
[1] = target: T1, Brd2(1) (Homo sapiens, UniProt P25440); conditions: wild type
T1 construct: Plasmids of the eight single BET bromodomain constructs Brd2(1), Brd2(2), Brd3(1), Brd3(2); His6 (N); made in house; host or cells: E. coli BL21(DE3)
Experimental: (§1) DSF assays were performed on a LightCycler®480 from Roche or a Mx3005P Real Time PCR machine from Stratagene. […] SYPRO®Orange from Invitrogen Molecular Probes® was used as a reporter dye to monitor the denaturing process of the proteins. Samples were assayed on a 96-well plate with final protein concentrations of 2 μM for the LightCycler®480 and 6 μM for Mx3005P. Compounds were added at a final concentration of 10 μM for the LightCycler®480 and 30 μM for Mx3005P, while the tetra acetylated histone peptide was added to a final concentration of 100 μM and 300 μM respectively. […] The temperature was raised with a step of 0.6° C. per minute from 37° C. to 95° C. with the LightCycler®480 collecting 39 measurements per ° C., and 1° C. per minute from 25° C. to 95° C. with Mx3005P, collecting fluorescence readings at the end of each interval. Each sample was run in triplicates.
(§2) Collected data was analysed by IGOR Pro 6, a scientific software tool from Wave Metrics, Inc. Analysis was done following the recommendations of Niesen et al.. Fluorescence intensity was plotted as a function of temperature, generating a sigmoidal curve described by a two-state transition from folded to unfolded protein. Curves were fitted by the following sigmoidal equation: […]
(§3) A1 and A2 are the values of minimum and maximum intensities, respectively, x0 is the inflection point and dx is the rate. Fitted curves were differentiated in IGOR Pro 6 and the maximum of the first derivative was identified using the same program. These values correspond to the inflection points of the transition curves and thus to the melting temperatures of the proteins (Tm).

[2] = target: T2, Brd2(1)*(Trp097His) (Homo sapiens, UniProt P25440, W97H); conditions: mutant
T2 construct: Plasmids of the eight single BET bromodomain constructs Brd2(1), Brd2(2), Brd3(1), Brd3(2); His6 (N); made in house; host or cells: E. coli BL21(DE3)
T2 sequence (P25440 74-180 W97H limits assumed): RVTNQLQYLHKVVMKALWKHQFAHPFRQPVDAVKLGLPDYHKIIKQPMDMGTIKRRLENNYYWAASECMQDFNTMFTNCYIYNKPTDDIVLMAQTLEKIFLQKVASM
Experimental: as §1, §2, §3

[3] = target: T3, Brd2(1)*(Trp097Phe) (Homo sapiens, UniProt P25440, W97F); conditions: mutant
T3 construct: Plasmids of the eight single BET bromodomain constructs Brd2(1), Brd2(2), Brd3(1), Brd3(2); His6 (N); made in house; host or cells: E. coli BL21(DE3)
T3 sequence (P25440 74-180 W97F limits assumed): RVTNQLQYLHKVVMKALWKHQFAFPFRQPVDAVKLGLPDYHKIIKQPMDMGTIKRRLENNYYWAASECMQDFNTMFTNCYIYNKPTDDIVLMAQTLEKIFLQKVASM
Experimental: as §1, §2, §3

[4] = target: T4, Brd2(2) (Homo sapiens, UniProt P25440); conditions: wild type
T4 construct: Plasmids of the eight single BET bromodomain constructs Brd2(1), Brd2(2), Brd3(1), Brd3(2); His6 (N); made in house; host or cells: E. coli BL21(DE3)
T4 sequence (P25440 344-453 limits assumed): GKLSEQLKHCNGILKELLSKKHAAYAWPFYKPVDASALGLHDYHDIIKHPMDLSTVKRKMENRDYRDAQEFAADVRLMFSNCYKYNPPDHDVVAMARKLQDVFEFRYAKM
Experimental: as §1, §2, §3

[5] = target: T5, Brd2(2)*(Trp370His) (Homo sapiens, UniProt P25440, W370H); conditions: mutant
T5 construct: Plasmids of the eight single BET bromodomain constructs Brd2(1), Brd2(2), Brd3(1), Brd3(2); His6 (N); made in house; host or cells: E. coli BL21(DE3)
T5 sequence (P25440 344-453 W370H limits assumed): as the sequence (P25440 344-453 limits assumed) above, with W27H counted along it
Experimental: as §1, §2, §3

[6] = target: T6, Brd2(2)*(Trp370Phe) (Homo sapiens, UniProt P25440, W370F); conditions: mutant
T6 construct: Plasmids of the eight single BET bromodomain constructs Brd2(1), Brd2(2), Brd3(1), Brd3(2); His6 (N); made in house; host or cells: E. coli BL21(DE3)
T6 sequence (P25440 344-453 W370F limits assumed): as the sequence (P25440 344-453 limits assumed) above, with W27F counted along it
Experimental: as §1, §2, §3

T1 sequence (P25440 74-180 limits assumed): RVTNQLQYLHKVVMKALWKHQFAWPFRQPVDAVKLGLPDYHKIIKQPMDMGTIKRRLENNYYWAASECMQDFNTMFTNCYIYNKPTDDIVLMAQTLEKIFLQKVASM

Row | SMILES | ΔTm Brd2(1) [1] [K] | ΔTm Brd2(1)*(Tryp097-His) [2] [K] | ΔTm Brd2(1)*(Tryp097-Phe) [3] [K] | ΔTm Brd2(2) [4] [K] | ΔTm Brd2(2)*(Tryp370-His) [5] [K] | ΔTm Brd2(2)*(Tryp370-Phe) [6] [K] | Thermal stabilisation brd2(1) [1] [°C] | Thermal stabilisation brd2(1)W097H [2] [°C] | Thermal stabilisation brd2(1)W097F [3] [°C] | Thermal stabilisation brd2(2) [4] [°C] | Thermal stabilisation brd2(2)W370H [5] [°C] | Thermal stabilisation brd2(2)W370F [6] [°C]
1 | Cc1cc(C)c(S(=O)(=O)Nc2ccc3c(c2)CN(C)C(=O)N3)c(C)c1 [Compound 42, 2,4,6-trimethyl-N-(3-methyl-2-oxo-1,2,3,4-tetrahydroquinazolin-6 yl)benzenesulfonamide] | 0.7 ± 0.3 | 0.2 ± 0.4 | 0.7 ± 0.2 | 2.7 ± 0.5 | 0.2 ± 0.2 | 1.8 ± 0.2 |  |  |  |  |  | 
2 | COC(=O)CC1N=C(c2ccc(Cl)c(C)c2)c2cc(OC)ccc2-n2c(C)nnc21 (racemic) [Compound 9, (+−)-methyl 2-(6-(4-chloro-3-methylphenyl)-8-methoxy-1-methyl-4H-benzo[f][1,2,4]triazolo[4,3-a][1,4]diazepin-4-yl)acetate] | 1.5 ± 0.2 | 0.2 ± 0.2 | −0.1 ± 0.2 | 3.2 ± 0.1 | 1.0 ± 0.3 | 1.5 ± 0.0 | 1.5 ± 0.2 | 0.2 ± 0.2 | −0.1 ± 0.2 | 3.2 ± 0.1 | 1.0 ± 0.3 | 1.5 ± 0.0
3 | CN1Cc2cc(NS(=O)(=O)c3c(Cl)cccc3Cl)ccc2NC1=O [Compound 43, 2,6-dichloro-N-(3-methyl-2-oxo-1,2,3,4-tetrahydroquinazolin-6-yl)benzenesulfonamide] | 1.2 ± 0.2 | 0.2 ± 0.2 | 0.2 ± 0.3 | 0.6 ± 0.1 | 0.3 ± 0.1 | 1.8 ± 0.3 |  |  |  |  |  | 
4 | CN1Cc2cc(NS(=O)(=O)c3ccccc3-c3ccccc3)ccc2NC1=O [Compound 44, N-(3-methyl-2-oxo-1,2,3,4-tetrahydroquinazolin-6-yl)-[1,1′-biphenyl]-2-sulfonamide] | 2.8 ± 0.4 | 1.3 ± 0.2 | 1.8 ± 0.3 | 2.1 ± 0.4 | 0.5 ± 0.3 | 2.2 ± 0.3 |  |  |  |  |  | 
5 | Cc1cccc(Cl)c1S(=O)(=O)Nc1ccc2c(c1)CN(C)C(=O)N2 [Compound 45, 2-chloro-6-methyl-N-(3-methyl-2-oxo-1,2,3,4-tetrahydroquinazolin-6-yl)benzenesulfonamide] | 3.9 ± 0.2 | 0.0 ± 0.3 |  | 5.3 ± 0.5 | 0.8 ± 0.1 | 2.3 ± 0.1 |  |  |  |  |  | 
6 | COC(=O)CC1N=C(c2cc(C)ccc2C)c2cc(OC)ccc2-n2c(C)nnc21 (racemic) [Compound 10, (+−)-methyl 2-(6-(2,5-dimethylphenyl)-8-methoxy-1-methyl-4H-benzo[f][1,2,4]triazolo[4,3-a][1,4]diazepin-4-yl)acetate] | 1.8 ± 0.2 | −0.4 ± 0.3 | 0.1 ± 0.2 | 3.5 ± 0.1 | −0.1 ± 0.1 | 0.6 ± 0.1 | 1.8 ± 0.2 | −0.4 ± 0.3 | 0.1 ± 0.2 | 3.5 ± 0.1 | −0.1 ± 0.1 | 0.6 ± 0.1
7 | COC(=O)CC1N=C(c2ccc(Cl)cc2C)c2cc(OC)ccc2-n2c(C)nnc21 (racemic) [Compound 8, (+−)-methyl 2-(6-(4-chloro-2-methylphenyl)-8-methoxy-1-methyl-4H-benzo[f][1,2,4]triazolo[4,3-a][1,4]diazepin-4-yl)acetate] | 6.3 ± 0.1 | 0.9 ± 0.3 | 1.4 ± 0.2 | 6.6 ± 0.2 | 1.1 ± 0.2 | 2.8 ± 0.1 | 6.3 ± 0.1 | 0.9 ± 0.3 | 1.4 ± 0.2 | 6.6 ± 0.2 | 1.1 ± 0.2 | 2.8 ± 0.1
8 | COC(=O)CC1N=C(c2cc(Cl)ccc2Cl)c2cc(OC)ccc2-n2c(C)nnc21 (centres unmarked) [Compound 17] | 1.2 ± 0.2 | −0.4 ± 0.2 | 0.0 ± 0.2 | 2.5 ± 0.2 | −0.4 ± 0.2 | 0.3 ± 0.0 |  |  |  |  |  | 
